According to patent US20070049635A1 (priority 2003, published 2007):
Read-outs that look alike come from different tables or passages of the source.

How the values were obtained:
[1] = test system: Pyricularia oryzae; format: in vivo; details: wettable powder diluted to 200 ppm sprayed on rice pots (Koshihikari, 2-leaf stage); spore spray-inoculation; examined after 7 days
[2] = test system: Pyricularia oryzae; format: in vivo; details: granules applied to water surface at 1.5 kg/10 ares; rice Koshihikari; inoculated 30 days after application; lesions examined after 1 week

`Cc1ccc(C(=O)NCC(NC(=O)OCC(F)(F)F)C2CCCC2)cc1` (stereo not shown) [compound 36] was tested, and the “Effect (preventive value)” value [1] was “A (80% or more)”.

For `CCC(C)C(CNC(=O)c1nc2ccccc2s1)NC(=O)OCC(F)(F)F` (stereo not shown) [compound 33], the “Effect (preventive value)” value [1] was “A (80% or more)”.

`Cc1ccc(C(=O)NCC(NC(=O)OCCC(F)(F)C(F)(F)C(F)(F)C(F)(F)F)C(C)C)cc1` (stereo not shown) [compound 14] was tested, and the “Effect (preventive value)” value [1] was “B (50% or more and less than 80%)”.

`CC(C)C(CNC(=O)c1nc2ccccc2s1)NC(=O)OCC(F)(F)F` (stereo not shown) [compound 38] was tested, and the “Effect (preventive value)” value [1] was “A (80% or more)”.

`Cc1ccc(C(=O)NCC(NC(=O)OC(CBr)CBr)C(C)C)cc1` (stereo not shown) [compound 11] was tested, and the “Effect (preventive value)” value [1] was “B (50% or more and less than 80%)”.

For `Cc1ccc(C(=O)NC(CNC(=O)OC(C(F)(F)F)C(F)(F)F)C(C)C)cc1` (stereo not shown) [Compound No. 8, N-(1,1,1,3,3,3-hexafluoro-2-propyloxycarbonyl)-N′-(4-methylbenzoyl)-3-methyl-1,2-butanediamine], the “Effect (preventive value)” value [1] was “A (80% or more)”.

With `CC(C)C(CNC(=O)c1cc2ccccc2s1)NC(=O)OCC(F)(F)F` (stereo not shown) [compound 34] the “Effect (preventive value)” value [1] was “A (80% or more)”.

`Cc1ccc(C(=O)NCC(NC(=O)OCC(F)(F)C(F)(F)C(F)(F)F)C(C)C)cc1` (stereo not shown) [compound 13] was tested, and the “Effect (preventive value)” value [1] was “A (80% or more)”.

`Cc1ccc(C(=O)NCC(NC(=O)OC2CCCCC2F)C(C)C)cc1` (stereo not shown) [compound 16] was tested, and the “Effect (preventive value)” value [1] was “A (80% or more)”.

In the case of “N-(chloromethyloxycarbonyl)-N′-(4-methylbenzoyl)-3-methyl-1,2-butanediamine [Compound No. 1]”, the “Effect (preventive value)” value [2] is reported as “A (80% or more)”.

With `CCC(CC)C(CNC(=O)c1ccc(C)cc1)NC(=O)OCC(F)(F)F` (stereo not shown) [compound 39] the “Effect (preventive value)” value [1] was “A (80% or more)”.

`Cc1ccc(C(=O)NCC(NC(=O)OCC(F)(F)F)C(C)(C)C)cc1` (stereo not shown) [compound 24] was tested, and the “Effect (preventive value)” value [1] was “A (80% or more)” and the “Effect (preventive value)” value [2] was “A (80% or more)”.

`Cc1ccc(C(=O)NCC(NC(=O)OC(C)C(F)(F)F)C(C)C)cc1` (stereo not shown) [compound 30] was tested, and the “Effect (preventive value)” value [1] was “A (80% or more)” and the “Effect (preventive value)” value [2] was “A (80% or more)”.

For `CC(C)C(CNC(=O)c1nc2ccc(F)cc2s1)NC(=O)OCC(F)(F)F` (stereo not shown) [compound 37], the “Effect (preventive value)” value [1] was “A (80% or more)”.

With `Cc1ccc(C(=O)NCC(NC(=O)OCCF)C(C)C)cc1` (stereo not shown) [compound 2] the “Effect (preventive value)” value [1] was “A (80% or more)” and the “Effect (preventive value)” value [2] was “A (80% or more)”.

`CC(C)(C)C(CNC(=O)c1cc2ccccc2o1)NC(=O)OCC(F)(F)F` (stereo not shown) [compound 31] was tested, and the “Effect (preventive value)” value [1] was “A (80% or more)” and the “Effect (preventive value)” value [2] was “A (80% or more)”.

“N-(2,2,2-trichloroethyloxycarbonyl)-N′-(4-methylbenzoyl)-3-methyl-1,2-butanediamine [Compound No. 7]” was tested, and the “Effect (preventive value)” value [1] was “A (80% or more)”.

`CC(C)C(CNC(=O)c1cc2ccccc2o1)NC(=O)OCC(F)(F)F` (stereo not shown) [compound 28] was tested, and the “Effect (preventive value)” value [1] was “A (80% or more)” and the “Effect (preventive value)” value [2] was “A (80% or more)”.

With “N-(2,2,2-trifluoroethyloxycarbonyl)-N′-(4-methylbenzoyl)-3-methyl-1,2-butanediamine [Compound No. 6]” the “Effect (preventive value)” value [1] was “A (80% or more)” and the “Effect (preventive value)” value [2] was “A (80% or more)”.

In the case of `Cc1ccc(C(=O)NCC(NC(=O)OCCBr)C(C)C)cc1` (stereo not shown) [compound 4], the “Effect (preventive value)” value [1] is reported as “A (80% or more)”.

For `CSCC(C)OC(=O)NC(CNC(=O)c1ccc(C)cc1)C(C)C` (stereo not shown) [Formula (8), reference compound], the “Effect (preventive value)” value [1] was “C (less than 50%)” and the “Effect (preventive value)” value [2] was “C (less than 50%)”.

For `Cc1ccc(C(=O)NCC(NC(=O)OC(CF)CF)C(C)C)cc1` (stereo not shown) [compound 9], the “Effect (preventive value)” value [1] was “A (80% or more)”.

In the case of `CCC(C)C(CNC(=O)c1ccc(C)cc1)NC(=O)OCC(F)(F)F` (stereo not shown) [compound 25], the “Effect (preventive value)” value [1] is reported as “A (80% or more)” and the “Effect (preventive value)” value [2] is reported as “A (80% or more)”.

With `CCC(C)C(CNC(=O)c1cc2ccccc2o1)NC(=O)OCC(F)(F)F` (stereo not shown) [compound 32] the “Effect (preventive value)” value [1] was “A (80% or more)”.

In the case of `Cc1ccc(C(=O)NCC(NC(=O)OCCCCl)C(C)C)cc1` (stereo not shown) [compound 10], the “Effect (preventive value)” value [1] is reported as “A (80% or more)”.

`C=C(Cl)COC(=O)NC(CNC(=O)c1ccc(C)cc1)C(C)C` (stereo not shown) [compound 15] was tested, and the “Effect (preventive value)” value [1] was “A (80% or more)” and the “Effect (preventive value)” value [2] was “A (80% or more)”.

With `Cc1ccc(C(=O)NC(CNC(=O)OC2CCCCC2Cl)C(C)C)cc1` (stereo not shown) [Compound No. 17, N-(2-chlorocyclohexyloxycarbonyl)-N′-(4-methylbenzoyl)-3-methyl-1,2-butanediamine] the “Effect (preventive value)” value [1] was “A (80% or more)”.

With `Cc1ccc(C(=O)NCC(NC(=O)OCCCl)C(C)C)cc1` (stereo not shown) [compound 3] the “Effect (preventive value)” value [1] was “A (80% or more)”.

With `Cc1ccc(C(=O)NCC(NC(=O)Oc2ccc3ccccc3c2)C(C)C)cc1` (stereo not shown) [Formula (7), reference compound] the “Effect (preventive value)” value [1] was “C (less than 50%)” and the “Effect (preventive value)” value [2] was “C (less than 50%)”.

For `Cc1ccc(C(=O)NCC(NC(=O)OCCI)C(C)C)cc1` (stereo not shown) [compound 5], the “Effect (preventive value)” value [1] was “A (80% or more)”.
